Series [1] deals with nausea and vomiting associated with administration of the test drug. Description: Working Example 2: drugs to treat nausea and vomiting associated with the test drug. Conditions: for efficacy against nausea and vomiting associated with the test drug (summary): summary of Table 18.
Source text: The administration period and efficacy of various drugs to treat nausea and vomiting associated with administration of the test drug were studied.
Series [2] can be described thus: Working Example 1: serum calcium concentration / hypercalcemia. In kind it is in vivo, human. The protocol:
Both the 5 and 100 unit groups were administered two tablets of a calcium agent (containing 500 mg of precipitated calcium carbonate [200 mg as calcium] per tablet) once a day.

Series [3] relates to osteoporosis patients having normal renal function, mild or moderate renal dysfunction. Conditions: in vivo.
For series [4] the following is noted: in vivo.
Procedure: The ratio of the urinary calcium value/urinary creatine value was compared before beginning administration and in the weeks of observation. The urinary calcium was measured at the start, after 12 weeks, after 24 weeks, after 48 weeks, and after 72 weeks.
For series [5] the following is noted: in vivo. This is another data set of the same source.
Procedure: The serum calcium was measured at the start, after 12 weeks, after 24 weeks, after 48 weeks, and after 72 weeks. Serum calcium standard value: 8.4 to 10.4 mg/dL. The standard concomitant drug (610 mg of calcium, 400 IU of vitamin D3, and 30 mg of magnesium) was taken once a day after dinner from the time of consent to the end of the trial.
For series [6] the following is noted: conventional daily administration; moderate renal dysfunction; Non-patent Reference 32; cited from earlier work.
The conditions of series [7]: 20 μg/day; blood samples 4 to 6 hours after administration; Non-patent Reference 1; cited from earlier work.

Where a name gives a salt, the structure may show the parent alone.

On to `O=c1[nH]c2ccccc2n1CCCN1CCC(n2c(=O)[nH]c3cc(Cl)ccc32)CC1` [Nauzelin, domperidone], for which the Effective or ineffective result is listed as “Effective” in series [1] (Event: Nausea, given Before test drug, taken after breakfast, lunch, and dinner); “Effective” in series [1] (Event: Vomiting, given Before test drug, taken after breakfast, lunch, and dinner). Moreover, in series [1], the “efficacy against nausea and vomiting associated with the test drug (summary)” value (“efficacy” below) is given as “effective”.
For the compound `CC[C@H](C)[C@H](NC(=O)[C@H](CCC(=O)O)NC(=O)[C@H](CO)NC(=O)[C@@H](NC(=O)[C@@H](N)CO)C(C)C)C(=O)N[C@@H](CCC(N)=O)C(=O)N[C@@H](CC(C)C)C(=O)N[C@@H](CCSC)C(=O)N[C@@H](Cc1cnc[nH]1)C(=O)N[C@@H](CC(N)=O)C(=O)N[C@@H](CC(C)C)C(=O)NCC(=O)N[C@@H](CCCCN)C(=O)N[C@@H](Cc1cnc[nH]1)C(=O)N[C@@H](CC(C)C)C(=O)N[C@@H](CC(N)=O)C(=O)N[C@@H](CO)C(=O)N[C@@H](CCSC)C(=O)N[C@@H](CCC(=O)O)C(=O)N[C@@H](CCCN=C(N)N)C(=O)N[C@H](C(=O)N[C@@H](CCC(=O)O)C(=O)N[C@@H](Cc1c[nH]c2ccccc12)C(=O)N[C@@H](CC(C)C)C(=O)N[C@@H](CCCN=C(N)N)C(=O)N[C@@H](CCCCN)C(=O)N[C@@H](CCCCN)C(=O)N[C@@H](CC(C)C)C(=O)N[C@@H](CCC(N)=O)C(=O)N[C@@H](CC(=O)O)C(=O)N[C@H](C(=O)N[C@@H](Cc1cnc[nH]1)C(=O)N[C@@H](CC(N)=O)C(=O)N[C@@H](Cc1ccccc1)C(=O)O)C(C)C)C(C)C` [teriparatide acetate], in series [2] (5 or 100 units once a week, high-risk and low-risk patients), the “changes in the serum calcium concentration” value was “no tendency for the serum calcium to rise was seen”. In series [2] (once a week, either dose (5 or 100 units), during the administration period), the hypercalcemia entry is given as “did not cause hypercalcemia”. Further, in series [3], the “incidence of side effects relative to the control” value is “about twice that of the control”. In series [4], the “median percentage change in the urinary calcium value” is on record as −14.7%. In series [5], the “corrected serum calcium value after administration, maximum” value came out at 11.6 mg/dL; the “corrected serum calcium value after administration, minimum” value turned out to be 8.5 mg/dL; the “corrected serum calcium value, range of the average” value lay within 9.3 to 9.6 mg/dL; the “corrected serum calcium, test drug groups versus control group” value is on record as “No significant differences could be found”. The “manifestation of hypercalcemia or hypercalciuria” value in series [5] is “No manifestation of hypercalcemia or hypercalciuria was found”.
`NC(N)=Nc1nc(CSCCC(N)=NS(N)(=O)=O)cs1` [Gaster D, famotidine]: the Effective or ineffective entry in series [1] (Event: Nausea, before or after test drug: Unknown) is “Effective”. Also, the “efficacy” value in series [1] was “effective”.
Regarding `CN1CCN(CCCN2c3ccccc3Sc3ccc(Cl)cc32)CC1.O=C(O)/C=C\C(=O)O.O=C(O)/C=C\C(=O)O` [Novamine], in series [1] (Event: Nausea, given Before test drug), the Effective or ineffective entry was “Ineffective”.
Regarding `CCOc1cc(N)c(Cl)cc1C(=O)NCC1CN(Cc2ccc(F)cc2)CCO1` (stereo not shown) [Gasmotin, mosapride citrate], in series [1], the “efficacy” value is reported as “effective”.
As to `CCN(CC)CCNC(=O)c1cc(Cl)c(N)cc1OC` [Primperan, metoclopramide], in series [1] (Event: Nausea, given Before test drug, listed as Primperan tablet), the Effective or ineffective entry is “Ineffective”. Besides, in series [1], the “efficacy” value is “effective”.
“PTH: parathyroid hormone preparation given daily (20 μg/day) in cited trials, conventional daily administration”: the “osteoporosis patients with serum calcium exceeding 11.0 mg/mL after administration” value in series [6] is given as 11.76%. In series [7], the patients with hypercalcemia is on record as 11% and the “patients with persistent hypercalcemia” value is recorded as 3%.
For the compound `Cc1c(OCC(F)(F)F)ccnc1C[S+]([O-])c1nc2ccccc2[nH]1` (stereo not shown) [Takepron OD, lansoprazole], the “efficacy” value in series [1] was “effective”.

The values above are taken from patent publication US20140357560A1, “PTH-CONTAINING THERAPEUTIC/PROPHYLACTIC AGENT FOR OSTEOPOROSIS, CHARACTERIZED IN THAT PTH IS ADMINISTERED ONCE A WEEK IN A UNIT DOSE OF 100 TO 200 UNITS” (ASAHI KASEI PHARMA CORPORATION, priority 2009, published 2014).
